Literature values in patent publication EP1482795B1, “NEW IMMU[…]” (CORIXA CORPORATION, priority 2002, dated 2003).

Monophosphoryl lipid A [MPL® immunostimulant]
doses that can be safely administered to humans: at least 20 µg/kg | dose levels at which increases in temperature, flu-like symptoms, increasing heart rate and modest decreases in blood pressure can occur (humans, some patients): ≥ 0.01 mg/kg
